Where only a bound is given, the exact number is not on record here.

The assay has as its target T1, Neutrophil elastase (Homo sapiens, UniProt P08246).
T1 sequence (P08246 whole entry): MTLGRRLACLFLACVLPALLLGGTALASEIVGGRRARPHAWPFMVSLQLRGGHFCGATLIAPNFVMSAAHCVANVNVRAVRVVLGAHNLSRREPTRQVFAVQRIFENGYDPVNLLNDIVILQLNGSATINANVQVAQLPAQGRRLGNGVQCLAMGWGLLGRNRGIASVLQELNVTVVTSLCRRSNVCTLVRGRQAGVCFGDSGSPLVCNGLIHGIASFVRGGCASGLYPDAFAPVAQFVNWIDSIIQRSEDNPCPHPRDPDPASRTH
Description: Enzyme Assay. Particulars: 25 °C. As for the experimental part:
The enzyme were assayed spectrophotometrically at 410nm with p-nitroanilide substrates at 25 C.
Regarding `Cc1nn(C)c2c1NOC(=O)N2` [Pyrazolooxadiazinone, 2b], the Ki came to 207 µM.
With `Cc1nn(-c2ccccc2)c2c1NOC(=O)N2` [Pyrazolooxadiazinone, 2a], the affinity, expressed as Ki, was 94 µM.
Molecule `Cc1nn(-c2ccc(Cl)cc2)c2c1NOC(=O)N2` [Pyrazolooxadiazinone, 2c] showed an inhibition constant (Ki) of 87 µM.
As to `CCCCc1nn(C)c2c1NOC(=O)N2` [Pyrazolooxadiazinone, 2l], the Ki was determined as 113 µM.
`Cc1nn(-c2cccc([N+](=O)[O-])c2)c2c1NOC(=O)N2` [Pyrazolooxadiazinone, 2h] gave a Ki greater than 8400 µM.
For `Cc1nn(-c2ccccc2[N+](=O)[O-])c2c1NOC(=O)N2` [Pyrazolooxadiazinone, 2g], the Ki was greater than 8400 µM.
The molecule `CCc1nn(C)c2c1NOC(=O)N2` [Pyrazolooxadiazinone, 2j] yielded an inhibition constant Ki of 199 µM.

One may read the Ki as the dissociation constant of the complex between target and ligand, obtained from inhibition or displacement. Read a high Ki as a looser hold on the target.

These data come from BindingDB's records for doi:10.1080/14756360109162352 (Universit&Agrave, 2001).
